Measured values: patent publication US20090209937A1 (priority 2007, published 2009)
Entries after “also recorded” stand apart in the source; their conditions may differ.

Tests used:
[1] = tested on: fully amygdala kindled rats; conditions: rat, in vivo
fully-kindled rats = conditions: rat, in vivo
Non-kindled rats = conditions: rat, in vivo
[2] = tested on: amygdala and surrounding brain structures; conditions: rat, in vivo
[3] = tested on: audiogenic seizure susceptible mice; conditions: mouse, in vivo; cited from earlier work

Row | Molecule | increase in mean AD threshold and decreases in mean seizure stage and mean behavioral seizure duration vs vehicle (p value) [1] | kindling measures vs vehicle at later time points [1] | time course of activity after CED infusion (in words) [1] | adverse neurological or behavioral effects (fully-kindled rats) | time of maximum increase in AD threshold / maximum protective effect after CED infusion [1] [h] | body weight increase (fully-kindled rats) [%] | resolution of tremor (fully-kindled rats) | tremor after infusions of lower doses (fully-kindled rats) | behavioral effects of the toxin infusion (in words) (Non-kindled rats) | body weight gain (Non-kindled rats) [%] | body weight loss (Non-kindled rats) [%] | cumulative dose corresponding to the threshold for locomotor arrest (Non-kindled rats) [nmol] | cumulative dose corresponding to the threshold for whole body tremors (Non-kindled rats) [nmol] | onset of locomotor activity arrest following the infusion (Non-kindled rats) [min] | onset of rhythmic whole body tremors following the infusion (Non-kindled rats) [min] | persistence of tremors (Non-kindled rats) [h] | rats exhibiting locomotor activity arrest followed by whole body tremors (Non-kindled rats) | tissue damage after repeated CED infusions (cresyl violet and silver staining) [2] | protection against seizures [3]
1 | NC(=O)N1c2ccccc2C=Cc2ccccc21 [carbamazepine] | < 0.05 | no differences | apparent at 20 min but not at 24 h; also recorded: active at 20 min but not at 24 h | not associated with any observable adverse neurological or behavioral effects | – | – | – | – | – | – | – | – | – | – | – | – | – | – | –
2 | ω-conotoxin GVIA [ω-CTX-G] | – | – | – | – | 48 | 0.1±2.1 | resolved by the third day after the infusion | No tremor was observed | no or only mild behavioral effects | 3.0±1.8 | 10.3±0.9 | 0.013 ± 0.001 | 0.027 ± 0.002 | 5.0 ± 0.4 | 10.8 ± 0.9 | 24 | All six | minimal damage | protected against seizures
